Source: US9968626B2, “Method for treating obesity” (Rhamnopharma Inc., priority 2011, dated 2018)

Experiment: Body weight of allergic-rhinitis-sensitized Balb/C mice after intranasal rhamnolipid doses (Example 1)
Assay type: in vivo
Details: 0.5% solution in saline, 5 μl per nostril at two time points on Day 37 (total 20 μl)
From the text: Originally, the objective of this study was to determine the effects of treatment with three different pharmaceutical formulations of rhamnolipids within the context of an allergic rhinitis study in mice. However, the weight loss effects due to treatment with the various rhamnolipids were unexpectedly discovered during the course of this study. Materials Animal: Balb/C mice were used in this study and were eight weeks old. The treatment groups and the placebo group were each composed of 10 mice. Allergenization was performed in a similar fashion as reported in the literature. Sensitization Materials: The following were used to sensitize and induce allergic rhinitis in the mice:
Mice were sensitized once-weekly with four intraperitoneal injections of OVA/Alum (Day 0, […], 14 and 21). From Day 22-39, anesthetized mice were administered once-daily doses of the OVA stock solution instilled in each nostril.
On Day 37, mice were assigned to one of three rhamnolipid treatment groups or a placebo group. The rhamnolipid treatment groups received a rhamnolipid mixture containing RPI-100, RPI-200, or RPI-300. […] Body weights of the mice were measured and recorded on Days 35, 37, and 39 as part of a standard animal safety observation protocol. […]

SMILES: CCCCCCCC(CC(=O)O)OC(=O)CC(CCCCCCC)O[C@@H]1O[C@@H](C)[C@H](O)[C@@H](O)[C@H]1O (stereo partly drawn) [RPI-200, L-rhamnosyl-β-hydroxydecanoyl-β-hydrocydecanoate]
- body weight, 2 days post-treatment (Day 39) compared with 2 days pre-treatment (Day 35), versus placebo: statistically significant reduction in body weight
